Laboratory results taken from patent publication US12662511B2, “Molecular transport system to the central nervous system” (SRI International, priority 2020, dated 2026).
No end group written: not given here.

Tests used:
[1] = In vivo CSF accumulation and brain distribution of dye-labeled MTS after IV tail vein injection; parameters: species or system rat; details: for amount present relative to MTS_CPEC4_V2 / distribution in brain (fluorescence imaging of coronal slices): rat, IV tail vein; for amount present relative to MTS_CPEC4_V2: CSF, dimeric peptide, fold higher than MTS_CPEC4_V2; for distribution in brain (fluorescence imaging of coronal slices): dye-labeled MTS
Method: (§1) The MTS is labeled with a dye that allows us to visualize its location. It is injected IV into the tail vein of a rat. After the indicated time, the CSF is isolated from the cisterna magna. The brain is harvested. After a fixation period, the brain is sliced in 1 mm coronal segments (front to back). The individual slices of the brain are imaged using fluorescence to locate the regions of peptide accumulation.
as §1, with “Dimeric MTS_Z310-5 is present in an amount 3× higher than MTS_CPEC4_V2 (FIG. 26). […] The MTS” for “The MTS”, “of peptide accumulation” for “of peptide accumulation.”
as §1, with “Dimeric MTS_Z310-2 is present in an amount 9× higher than MTS_CPEC4_V2 (FIG. 27). […] The MTS” for “The MTS”, “of peptide accumulation” for “of peptide accumulation.”

[2] = tested on: rat choroid plexus epithelial cells (Z310); experiment: Transwell transport across rat choroid plexus epithelial cells (Z310); type: cell-based
Method: FIG. 15 is an in vitro transwell assay used to determine the ability of the MTS_CPEC4 phage clone or peptide to cross a choroid plexus barrier model derived from a Rat (Z310) cells). The amount of input placed on one side of the barrier (the “blood” side) and the amount that passes through the cells to the other side (the CSF side) is measured. The top table represents the data for the phage clone. The empty phage has no MTS peptide attached. The amount of phage in each side of the transwell is determined by bacterial titering. The bottom table represents the data for the synthetic peptide. Here the peptide is labeled with a fluorophore so the peptide on either side of the barrier can be measured. Dextran-dye (such as Alexa Fluor 488) is used as a control molecule. This molecule should not pass through the transwell and assures that the choroid plexus model is valid.
Other lead MTS peptides were examined using a transwell transport set up with rat choroid plexus cells (FIG. 24). Eight phage clones were enriched in the CSF. Individual phage clones were then tested for transcytosis in vitro on Z310 choroid plexus cells and CSF accumulation in rats. MTS_Z310-2 (SEQ ID NO:4) and MTS_Z310-5 (SEQ ID NO:7) phage clones were carried forward for further evaluation. […] The 20% transport is better than that seen with CPEC4. […]

[3] = tested on: choroid plexus epithelial cell layer; experiment: Phage clone transport through human choroid plexus cells in vitro (FIG. 12); type: cell-based; details: phage-displayed peptide
Method: CPEC4_Phage clone sequence […] (SEQ ID NO:2) was the lead peptide sequence in these studies. CPEC4 phage clone is enriched as multiple rounds of panning were performed. CPEC4 phage clone is selected from the transwell indicating transport and release.
The phage clone remains viable during the cellular transport.

[4] = tested on: human primary choroid plexus epithelial cells; experiment: Transwell transport of fluorescent protein cargo across human choroid plexus in vitro model; type: cell-based
From the text: A rat model was developed as well. Selection to identify a phage clone from the library that crosses the choroid plexus epithelial barrier has also been informed. […] The phage clone was transported into the CSF selectively and data supported similar transport for the MTS peptide.
FIG. 13 represents a dimer of the CPEC4 peptide. The CPEC4 peptide was synthesized as a dimer and having a biotin handle that allows for attachment of fluorescently labeled proteins.
6-9% of the protein is transported across the cell layer. Tight junctions remain intact as witnessed by lack of dextran transport and maintenance of transepithelial resistance at the end of the experiment.

choroid plexus cells = experiment: Transport across monolayer of choroid plexus cells with dye or streptavidin cargo (FIG. 21); type: cell-based; details: chemical (AF647 dye) and protein (50 kDa Streptavidin) cargoes
From the text: The integrity of the monolayer with tight junctions is observed by the lack of diffusion or transport of low a molecular weight dye (750) maleimide), a 10 kDa dextran polymer, or larger protein (50 kDa). In the SA conjugate, the MTS has a biotin in the core structure. The biotin is then conjugated to a streptavidin protein labeled with a fluorophore.

[5] = Serum stability of MTS peptide; type: in vitro ADME; details: read-out: peptide remains intact
Method: The stability of the different MTS sequences is important. […] 80% of the peptide remains intact at 24 hours. Modifications were mapped by MS.

For “Dimeric MTS_Z310-5: comprises two MTS peptides each having the sequence SKETYSMNAQRQHERS (SEQ ID NO:7) (also: dimer, linkage not given here)”, the “amount present relative to MTS_CPEC4_V2” value [1] was 3 × and the “distribution in brain (fluorescence imaging of coronal slices)” value (from here on “distribution in brain”) [1] was “distributed throughout the ventricular system of the brain”.
In the case of “SKETYSMNAQRQHERS (molecular transport peptide) [MTS_Z310-5]”, the “transport of protein cargo” value [2] is reported as 20%.
For “Dimeric MTS_Z310-2: comprises two MTS peptides each having the sequence FPSWTSKNQQWTNQRQ (SEQ ID NO:4) (also: dimer, linkage not given here)”, the “amount present relative to MTS_CPEC4_V2” value [1] was 9 × and the “distribution in brain” value [1] was “distributed throughout the ventricular system”.
For “DGYKLQTSLDWQMWNP (molecular transport peptide) [MTS_CPEC4_V1]”, the “transport of phage particle across choroid plexus epithelial cell layer” value [3] was “mediates transport of a large phage particle across choroid plexus epithelial cell layer”, the “protein transported across the cell layer” value [4] was 6-9% and the “transport across monolayer of choroid plexus cells” value (choroid plexus cells) was “efficiently transported”.
In the case of “FPSWTSKNQQWTNQRQ (molecular transport peptide) [MTS_Z310-2]”, the “transport of protein cargo” value [2] is reported as 20%.
For “MTS_CPEC4_V2 (SEQ ID NO: 1) dimers: comprises two MTS peptides each having the sequence DAYKLQTSLDWQMWNP (SEQ ID NO: 1) (also: dimer, linkage not given here)”, the “distribution in brain” value [1] was “distributed throughout the ventricular system of the brain”.
With `CSCC[C@H](NC(=O)[C@H](CCC(N)=O)NC(=O)[C@H](Cc1c[nH]c2ccccc12)NC(=O)[C@H](CC(=O)O)NC(=O)[C@H](CC(C)C)NC(=O)[C@H](CO)NC(=O)[C@@H](NC(=O)[C@H](CCC(N)=O)NC(=O)[C@H](CC(C)C)NC(=O)[C@H](CCCCN)NC(=O)[C@H](Cc1ccc(O)cc1)NC(=O)[C@H](C)NC(=O)[C@H](CC(=O)O)NC(C)=O)[C@@H](C)O)C(=O)N[C@@H](Cc1c[nH]c2ccccc12)C(=O)N[C@@H](CC(N)=O)C(=O)N1CCC[C@H]1C(=O)NCCOCCOCCOCCOCCOCCOCCOCCOCCOCCOCCOCCC(N)=O` [MTS-CPEC4_V2] the remaining at 24 h [5] was 80%, the “transport across monolayer of choroid plexus cells” value (choroid plexus cells) was “efficiently transported” and the “accumulation in the CSF” value ([1]; rats, tail vein injection) was “accumulating in the CSF”.
